This is an account of results in patent US8813566B2, “Instrumentation and analytical techniques suitable for broadband acoustic resonance dissolution spectroscopy” (University College Cork—National University of Ireland, priority 2008, dated 2014).

This series in a line: Broadband acoustic resonance dissolution spectroscopy (BARDS) dissolution profile in distilled water. The format is physicochemical. To be noted: 0.4M in 100 ml of double distilled water.

Description: The inside of the glass was cleaned with distilled water whilst ensuring the outside of the glass is dry with particular care taken to prevent moisture from affecting the microphone. The microphone is placed on the outside of the glass, 5 cm above the 100 ml volume of water and 1.8 cm from the top of the glass. Securing the microphone above the volume line delivers a better spectrum and the distances aid in reproducibility. The microphone and the wire connection to the glass are secured with adhesive tape. 100 mls of distilled water is accurately poured into the glass and set stirring using a magnetic stirrer. The stirring solution is recorded for 30 seconds prior to addition of the analyte compound to record the resonant frequencies of the vessel (spectrum background). The concentration of the analyte compound is 1.37 M where saturation levels allow. The analyte compound is added carefully all at once from a weighing boat to the stirring solution, with care taken to ensure no sample is lost to the glass sides. The sample spectrum is recorded for a total of 800 seconds. Raw data was saved in .wav format files. From these files the spectrum can be replayed acoustically with any media program. This allows data points to be selected using the mouse cursor and saved in a text format file for transplantation into a data manipulation program such as Excel™ or Sigmaplot™. […]

With `O=S(=O)([O-])[O-].[Cu+2]` [anhydrous form, Anhydrous copper sulphate], the “time required for complete dissolution” value worked out at 75 s.
